From patent US10154988B2, “Methods and compositions for treating schizophrenia” (The Johns Hopkins University, priority 2012, dated 2018)
Where two headings read alike, the source gives them in different places.

Tests used:
[1] = tested on: Age-Impaired (AI) Long-Evans rats; assay: Morris Water Maze retention trial, levetiracetam in aged-impaired rats; assay type: in vivo, rat
Protocol: The MWM apparatus consists of a large, circular pool (diameter 1.83 m; height, 0.58 m) filled with water (27° C.) that is made opaque through the addition of non-toxic pigment or some other substance. In the typical “hidden platform” version of the test, rats are trained to find a camouflaged white escape platform (height, 34.5 cm) that is positioned in the center of one quadrant of the maze about 1.0 cm below the water surface. This platform can be retracted to the bottom of the tank or raised to its normal position from outside the maze during behavioral testing. The location of the platform remains constant from trial to trial. Because there are no local cues that mark the position of the platform, the rat's ability to locate it efficiently from any starting position at the perimeter of the pool depends on using information surrounding the maze. The maze is surrounded by black curtains to which white patterns are affixed to provide a configuration of spatial cues. A second platform (height 37.5 cm), with its surface painted black is elevated 2 cm above the water surface during cue training to control for factors unrelated to cognition. The behavior of a rat in the pool is recorded by a camera that is suspended 2.5 m above the center of the pool. The camera is connected to a video tracking system (HVS Image Advanced Tracker VP200) and a PC computer running HVS software developed by Richard Baker of HVS Image, Hampton, UK. The MWM protocol is optimized for sensitivity to the effects of aging on cognition and for measures of reliable individual differences within the aged population of out-bred Long-Evans rats (Gallagher et al. Behav. Neurosci. 107:618-626, (1993)). Rats receive three trials per day for 8 consecutive days, using a 60 sec inter-trial interval. On each training trial, the rat is released into the maze from one of four equally spaced starting positions around the perimeter of the pool. The starting position varies from trial to trial, thus preventing the use of a response strategy (e.g., always turning left from the start location to locate the escape platform). […] Every sixth trial consists of a probe trial to assess the development of spatial bias in the maze. During these trials, the rat swims with the platform being refracted to the bottom of the pool for 30 sec, at which time the platform is raised to its normal position for completion of the escape trial. At the completion of the protocol using the hidden platform, rats are assessed for cue learning using the visible platform. The location of this platform varies from trial to trial in a single session of 6 training trials. […]

[2] = levetiracetam blood plasma levels in aMCI patients; assay type: in vivo; details: human
From the text: Visit 1: At the end of the first drug/placebo period 2 weeks after the Baseline Visit, the medical, neurological and psychiatric evaluations and cognitive testing are repeated. The subject is also clinically evaluated for suicidal ideation. Blood is drawn again to repeat the standard tests and to determine whether there are any changes related to drug treatment; the subject's blood levetiracetam level is also obtained. All medication that is dispensed at the Baseline Visit (drug or placebo) is collected and subject compliance with the medication regimen is assessed. The first fMRI session (with cognitive tests) is conducted on the same day, either immediately before or immediately after the clinical assessment. Subjects discontinue first period treatment at this visit.
Visit 2: At approximately 2 weeks after the Washout Visit (i.e., 2 weeks after starting the second treatment period), the medical, neurological and psychiatric evaluations and the cognitive testing are repeated. The subject is clinically evaluated for suicidal ideation. Blood is drawn again to repeat the standard tests and to determine whether there are any changes related to drug treatment; the subject's blood levetiracetam level is also obtained. All medication that is dispensed at the Washout Visit is collected and subject compliance with the medication regimen is assessed. The second fMRI session (with cognitive tests) is repeated on the same day, either immediately before or immediately after the clinical assessment.
Visit 2: At approximately 2 weeks after the Washout Visit (i.e., 2 weeks after starting the second treatment period), the medical, neurological and psychiatric evaluations and the cognitive testing are repeated. The subject is clinically evaluated for suicidal ideation. […] All medication being dispensed at the Washout Visit is collected and subject compliance with the medication regimen is assessed. […]
Human – in the human studies described in Examples 3 and 4, a subject's levetiracetam blood plasma level is assessed at each visit. […]

[3] = 10 mg/kg/day i.p., retention trial

concentration at 2 weeks ([2]; 62.5 mg BID cohort (125 mg/day), SEM±0.288, read-out: mean levetiracetam blood plasma level): 2880 ng/mL
concentration at 2 weeks ([2]; 125 mg BID cohort (250 mg/day), SEM±0.53, read-out: mean levetiracetam blood plasma level): 4400 ng/mL
concentration at 2 weeks ([2]; 250 mg BID cohort (500 mg/day), SEM±0.92, read-out: mean levetiracetam blood plasma level): 7900 ng/mL
Compound: CC[C@@H](C(N)=O)N1CCCC1=O [levetiracetam, (2S)-2-(2-oxopyrrolidin-1-yl) butanamide]
performance (time in target quadrant) versus vehicle ([1]; 5 mg/kg/day i.p., retention trial): does not significantly improve
memory as compared to vehicle-treated controls [1, 3]: significantly improved memory
time spent in the target annulus [1, 3]: effectiveness of the 10 mg/kg/day levetiracetam treatment is also seen
time spent in the target quadrant, percentage of total swimming time ([1]; 10 mg/kg/day i.p., retention trial 24 h after two training days, vehicle approximately 25%): approximately 35%
